The source of these data is PubChem BioAssay (NCI).

In the assay the test system is MDA-MB-468 breast. Put plainly: growth of human tumour cells (NCI), 48 h.

Values joined by “and” are separate entries in the source; they are usually repeats but may differ in a detail not shown here. Equal entries are not always repeated.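 Cultured in 96-well plates, cells were exposed to test compound for 48 hours across five concentrations. GI50 = concentration required for 50% inhibition of growth. TGI denotes the concentration required for complete inhibition of growth.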

`N#C/C(=C\c1ccc(Br)cc1)n1nnc2ccc(F)cc21`: the GI50 is 0.271 µM and the TGI was found to be 0.867 µM.
For `Cc1cnc(C(=O)NNc2nc3sc4c(c3c(=O)n2C)C(C)CCC4)cn1` (configuration not stated), in that order: 0.278 µM and 1.07 µM.
For `COc1ccc(-c2ccc(-c3ccc(C(=N)N)o3)o2)cc1`, in that order: 0.864 µM and 2.84 µM.
For `CCN1CCN(CC(=O)N2c3cccc4cccc(c34)N(C(=O)CN3CCN(CC)CC3)C2c2cn(-c3ccccc3)nc2-c2cccc([N+](=O)[O-])c2)CC1`, in that order: 1.26 µM and 2.76 µM.
As for `Cn1cc(-c2ccc(-c3ccc(C4=NC5(CC5)C(=O)N4C[C@@H]4CCN(C(=O)C5CC5)C4)cc3)cc2)cn1`, the GI50 is 16.9 µM and the TGI stood at 40.1 µM.
Consider `OC(c1cc(C23CC4CC(CC(C4)C2)C3)nc2c(Cl)cc(Cl)cc12)C1CCCCN1` (configuration not stated), for which the GI50 is 1.48 µM and the TGI is 2.81 µM.
For `CN(C)c1ccc(/C=C/c2cc[n+](C)c(/C=C/c3ccc(N(C)C)cc3)c2)cc1`, in that order: 0.0969 µM and 0.537 µM.
The corresponding values for `O=C1CCc2c(sc3[nH]c(=S)n(Cc4ccc(Cl)cc4)c(=O)c23)C1` are 0.299 µM and 1.21 µM.
Take `Cc1cnc(C(=O)Nc2nc3ccc(S(=O)(=O)Nc4ccc(C5(C(F)(F)F)CC5)cc4)cc3[nH]2)cn1`: the GI50 was 0.224 µM and the TGI amounted to 1.98 µM.
Turning to `Cc1cn(-c2cc(NC(=O)c3ccc(C)c(Nc4nccc(-c5cccnc5)n4)c3)cc(C(F)(F)F)c2)cn1`, the GI50 is 1.8 µM and 1.75 µM; the TGI is 4.06 µM and 8.39 µM.
For the compound `CCOC(=O)c1c2c(n3ccccc13)C(=O)c1ncccc1C2=O`, the GI50 was 2.77 µM and the TGI was 12 µM.
Take `C[N+]1=C(/C=C\C=C\c2ccccc2)C(C)(C)c2ccccc21`: the GI50 was 0.636 µM and the TGI turned out to be 4.55 µM.
For the compound `O=C(OC[C@H]1O[C@H](OC(=O)c2cc(O)c(O)c(OC(=O)c3cc(O)c(O)c(O)c3)c2)[C@H](OC(=O)c2cc(O)c(O)c(OC(=O)c3cc(O)c(O)c(O)c3)c2)[C@@H](OC(=O)c2cc(O)c(O)c(OC(=O)c3cc(O)c(O)c(O)c3)c2)[C@@H]1OC(=O)c1cc(O)c(O)c(OC(=O)c2cc(O)c(O)c(O)c2)c1)c1cc(O)c(O)c(OC(=O)c2cc(O)c(O)c(O)c2)c1`, the GI50 was 4.75 µM and the TGI turned out to be 17.8 µM.
As to `O=C1C[C@@H]2/C(=C(O)\C=C\c3ccccc3)C(=O)C=C[C@@H]2O1`, the GI50 is 1.58 µM and the TGI amounted to 3.21 µM.
`COC(=O)[C@@H](C)C[C@H](Cc1ccccc1)NC(=O)c1csc([C@@H](C[C@H](C(C)C)N(C)C(=O)[C@@H](NC(=O)[C@H]2CCCCN2C)C2CC2)OC(C)=O)n1` registered a TGI of more than 16.5 µM.
Consider `C=C1CC2(OC1=O)C(=O)Nc1ccccc12` (configuration not stated), for which the GI50 is 0.854 µM and the TGI came out at 2.7 µM.
Consider `CCNC(=O)O[C@H]1CN[C@H](C#Cc2cc3ncnc(Nc4ccc(OCc5cccc(F)c5)c(Cl)c4)c3s2)C1`, for which the GI50 is 0.155 µM and the TGI came to 1.92 µM.
The corresponding values for `Cc1cc(N2CCOCC2)cc2[nH]c(-c3c(NC[C@@H](O)c4cccc(Cl)c4)cc[nH]c3=O)nc12` are 3.65 µM and 14 µM.
For `COc1cc(C2CC(c3ccc(Nc4ccnc5cc(Cl)ccc45)cc3)=NN2c2ccc(Cl)cc2)cc(OC)c1OC` (configuration not stated), in that order: 0.908 µM and 9.67 µM.
The corresponding values for `O=C1C(Cl)=C(NCc2ccco2)C(=O)c2ccccc21` are 3.71 µM and 22 µM.
With `Cc1ncc(C(=O)Nc2ccc(CN3CCN(C)CC3)c(C(F)(F)F)c2)cc1C#Cc1cnc(N)cc1C#N`, the GI50 was 1.29 µM and the TGI was 3.78 µM.
Regarding `Cc1ccc(Cl)cc1NC(=O)c1sc2nc3c(cc2c1N)C(=O)CCC3`, the GI50 is 2.74 µM and the TGI amounted to 8.76 µM.
Regarding `CCN(CC)c1ccc(C(=O)c2ccc(N(CC)CC)cc2)cc1`, the GI50 was 0.298 µM and the TGI came to 1.66 µM.
Turning to `COc1cc(Nc2ncc(F)c(Nc3ccc4c(n3)N(COP(=O)(O)O)C(=O)C(C)(C)O4)n2)cc(OC)c1OC`, the GI50 was 1.55 µM and 1.65 µM; the TGI is 4.74 µM and 5.42 µM.
Regarding `O=C1C(=O)c2cccnc2-c2ncccc21`, the GI50 was 0.193 µM and the TGI was determined as 0.491 µM.
The corresponding values for `O=C(/C=C/c1ccc(C(F)(F)F)cc1)c1ccc(Nc2nc(NCCO)nc(Nc3ccc(Cl)cc3)n2)cc1` are 5.54 µM and 21.3 µM.
The corresponding values for `COc1cc(-c2nc(SCCC(C)C)nc(Nc3ccc(S(N)(=O)=O)cc3)c2C#N)cc(OC)c1OC` are 3.07 µM and 9.96 µM.
For `C=C1C(=O)O[C@H]2[C@H]1CC/C(Cn1cc(-c3ccccc3C(F)(F)F)nn1)=C\CC[C@@]1(C)O[C@@H]21`, in that order: 1.14 µM and 2.8 µM.
Regarding `S=P(N1CC1)(N1CC1)N1CC1`, the GI50 was 23.7 µM and the TGI was determined as 170 µM.
